Test [1] addresses 5'-AMP-activated protein kinase catalytic subunit alpha-1 (Homo sapiens) (UniProt Q13131). The test can be described thus: Inhibition of human AMPKalpha1 (1 to 550 residues assessed as residual activity at 1 uM relative to control.
Test [2] has as its target Aurora kinase B (Homo sapiens) (UniProt Q96GD4). The test can be described thus: Inhibition of human Aurora-B assessed as residual activity at 1 uM relative to control.
Test [3] deals with Calcium/calmodulin-dependent protein kinase kinase 2 (Homo sapiens) (UniProt Q96RR4). The test can be described thus: Inhibition of human CAMKK2 assessed as residual activity at 1 uM relative to control.
Test [4] has as its target Dual specificity tyrosine-phosphorylation-regulated kinase 1A (Homo sapiens) (UniProt Q13627). In words: Inhibition of human DYRK1A assessed as residual activity at 0.1 uM relative to control.
In test [5] the target is T1, Eukaryotic elongation factor 2 kinase (Homo sapiens) (UniProt O00418).
T1 sequence (whole entry): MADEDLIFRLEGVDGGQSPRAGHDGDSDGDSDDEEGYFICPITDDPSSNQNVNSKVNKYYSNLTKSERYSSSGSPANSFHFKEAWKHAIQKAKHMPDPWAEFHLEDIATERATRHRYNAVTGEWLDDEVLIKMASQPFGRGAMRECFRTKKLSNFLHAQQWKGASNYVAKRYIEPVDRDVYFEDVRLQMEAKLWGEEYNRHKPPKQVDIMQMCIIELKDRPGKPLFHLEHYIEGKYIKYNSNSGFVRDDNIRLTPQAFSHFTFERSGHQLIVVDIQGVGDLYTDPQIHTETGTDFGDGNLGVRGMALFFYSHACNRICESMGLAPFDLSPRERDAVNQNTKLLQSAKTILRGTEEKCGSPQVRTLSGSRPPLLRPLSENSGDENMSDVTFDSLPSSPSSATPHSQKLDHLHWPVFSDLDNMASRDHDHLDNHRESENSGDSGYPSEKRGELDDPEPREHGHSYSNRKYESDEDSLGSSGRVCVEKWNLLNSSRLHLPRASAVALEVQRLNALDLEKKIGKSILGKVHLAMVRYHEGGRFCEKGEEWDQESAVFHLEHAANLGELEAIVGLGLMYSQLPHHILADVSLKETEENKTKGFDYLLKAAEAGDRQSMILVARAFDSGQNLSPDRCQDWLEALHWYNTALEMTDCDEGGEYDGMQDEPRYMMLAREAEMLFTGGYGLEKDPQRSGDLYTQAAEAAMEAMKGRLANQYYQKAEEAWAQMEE
The test can be described thus: Inhibition of human EEF2K assessed as residual activity at 0.1 uM relative to control.

Test [6] has as its target Insulin-like growth factor 1 receptor (Homo sapiens) (UniProt P08069). In words: Inhibition of human IGF1R assessed as residual activity at 1 uM relative to control.
Test [7] concerns the target T2, Mitogen-activated protein kinase kinase kinase 7 (Homo sapiens) (UniProt O43318).
T2 sequence (whole entry): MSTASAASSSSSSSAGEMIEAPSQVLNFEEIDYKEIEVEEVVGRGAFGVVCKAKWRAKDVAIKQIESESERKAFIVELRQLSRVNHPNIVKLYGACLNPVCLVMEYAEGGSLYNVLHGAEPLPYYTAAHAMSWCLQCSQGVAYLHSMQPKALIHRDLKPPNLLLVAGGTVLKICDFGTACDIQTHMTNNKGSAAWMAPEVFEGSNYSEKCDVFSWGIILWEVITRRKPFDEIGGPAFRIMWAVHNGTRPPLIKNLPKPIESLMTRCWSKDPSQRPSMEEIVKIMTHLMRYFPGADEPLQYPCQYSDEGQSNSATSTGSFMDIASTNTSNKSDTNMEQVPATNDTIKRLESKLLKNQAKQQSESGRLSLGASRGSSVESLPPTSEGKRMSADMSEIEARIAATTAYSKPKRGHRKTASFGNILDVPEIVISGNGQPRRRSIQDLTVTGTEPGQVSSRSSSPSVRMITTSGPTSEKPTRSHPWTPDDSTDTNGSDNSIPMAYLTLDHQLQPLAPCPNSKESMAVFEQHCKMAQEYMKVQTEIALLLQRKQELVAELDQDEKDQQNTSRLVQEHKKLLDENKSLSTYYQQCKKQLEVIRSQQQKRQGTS
In words: Inhibition of human MAP3K7 assessed as residual activity at 0.1 uM relative to control.

Test [8] concerns the target T3, Serine/threonine-protein kinase 3 (Homo sapiens) (UniProt Q13188).
T3 sequence (whole entry): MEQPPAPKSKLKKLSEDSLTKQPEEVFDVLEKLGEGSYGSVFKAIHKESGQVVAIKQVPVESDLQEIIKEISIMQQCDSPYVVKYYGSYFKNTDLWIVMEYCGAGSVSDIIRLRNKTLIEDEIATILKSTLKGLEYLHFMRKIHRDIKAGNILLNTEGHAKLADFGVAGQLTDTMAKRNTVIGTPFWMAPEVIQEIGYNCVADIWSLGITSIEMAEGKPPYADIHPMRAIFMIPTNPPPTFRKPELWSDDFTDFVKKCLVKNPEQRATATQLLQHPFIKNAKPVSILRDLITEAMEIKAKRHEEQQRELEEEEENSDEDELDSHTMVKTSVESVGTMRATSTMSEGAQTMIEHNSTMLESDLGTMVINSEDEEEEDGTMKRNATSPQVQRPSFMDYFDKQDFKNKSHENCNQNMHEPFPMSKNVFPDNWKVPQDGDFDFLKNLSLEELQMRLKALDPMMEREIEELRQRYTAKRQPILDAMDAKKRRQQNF
The test can be described thus: Inhibition of human MST2 assessed as residual activity at 0.1 uM relative to control.

For test [9], the target named is Mitogen-activated protein kinase 14 (Homo sapiens) (UniProt Q16539). The test can be described thus: Inhibition of human p38-alpha assessed as residual activity at 0.1 uM relative to control.
Test [10] concerns the target Serine/threonine-protein kinase N2 (Homo sapiens) (UniProt Q16513). In words: Inhibition of human PRK2 assessed as residual activity at 0.1 uM relative to control.
Test [11] concerns the target T4, Serine/threonine-protein kinase Sgk1 (Homo sapiens) (UniProt O00141).
T4 sequence (whole entry): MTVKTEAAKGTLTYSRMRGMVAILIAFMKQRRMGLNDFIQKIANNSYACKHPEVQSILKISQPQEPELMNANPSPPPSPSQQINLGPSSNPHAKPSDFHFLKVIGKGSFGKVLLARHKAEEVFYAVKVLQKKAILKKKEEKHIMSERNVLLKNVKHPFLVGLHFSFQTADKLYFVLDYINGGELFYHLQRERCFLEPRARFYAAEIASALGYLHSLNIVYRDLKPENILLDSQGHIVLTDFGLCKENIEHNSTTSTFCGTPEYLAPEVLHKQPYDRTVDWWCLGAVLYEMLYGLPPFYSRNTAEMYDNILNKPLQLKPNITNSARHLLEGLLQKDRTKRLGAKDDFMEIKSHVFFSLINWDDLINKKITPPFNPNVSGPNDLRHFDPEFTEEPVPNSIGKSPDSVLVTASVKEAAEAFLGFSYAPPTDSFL
In words: Inhibition of human SGK1 assessed as residual activity at 0.1 uM relative to control.

Test [12] concerns the target SRSF protein kinase 1 (Homo sapiens) (UniProt Q96SB4). The test can be described thus: Inhibition of human SRPK1 assessed as residual activity at 0.1 uM relative to control.

Mitogen-activated protein kinase 14 (Homo sapiens), sequence (Q16539 whole entry): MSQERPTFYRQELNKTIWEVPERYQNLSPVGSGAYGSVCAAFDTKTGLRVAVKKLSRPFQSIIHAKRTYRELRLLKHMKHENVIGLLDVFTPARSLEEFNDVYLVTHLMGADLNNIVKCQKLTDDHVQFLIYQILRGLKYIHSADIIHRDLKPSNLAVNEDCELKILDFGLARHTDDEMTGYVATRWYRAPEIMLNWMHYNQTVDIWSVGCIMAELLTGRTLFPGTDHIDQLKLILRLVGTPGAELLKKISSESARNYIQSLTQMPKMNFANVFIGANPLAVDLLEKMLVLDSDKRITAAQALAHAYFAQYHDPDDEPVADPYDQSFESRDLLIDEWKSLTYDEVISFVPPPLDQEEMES
Insulin-like growth factor 1 receptor (Homo sapiens), sequence (P08069 31-736 limits assumed): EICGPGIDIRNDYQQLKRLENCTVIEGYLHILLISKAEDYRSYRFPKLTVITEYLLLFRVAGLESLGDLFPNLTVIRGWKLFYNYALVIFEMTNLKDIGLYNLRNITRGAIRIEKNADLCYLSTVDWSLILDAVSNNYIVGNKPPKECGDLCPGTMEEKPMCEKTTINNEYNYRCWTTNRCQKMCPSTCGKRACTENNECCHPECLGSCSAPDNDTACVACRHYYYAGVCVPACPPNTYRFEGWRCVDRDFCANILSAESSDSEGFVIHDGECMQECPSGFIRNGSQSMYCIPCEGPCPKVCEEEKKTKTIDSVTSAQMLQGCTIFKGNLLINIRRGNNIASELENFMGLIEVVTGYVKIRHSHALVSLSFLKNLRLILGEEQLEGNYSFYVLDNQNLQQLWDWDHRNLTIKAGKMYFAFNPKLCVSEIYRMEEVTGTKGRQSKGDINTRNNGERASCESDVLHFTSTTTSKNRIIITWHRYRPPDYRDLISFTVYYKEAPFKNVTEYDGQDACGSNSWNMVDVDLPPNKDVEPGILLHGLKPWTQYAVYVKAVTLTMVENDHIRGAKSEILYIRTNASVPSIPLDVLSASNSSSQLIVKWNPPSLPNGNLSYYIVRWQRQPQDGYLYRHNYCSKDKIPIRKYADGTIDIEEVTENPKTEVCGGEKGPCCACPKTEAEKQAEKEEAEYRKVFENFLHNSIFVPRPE
Insulin-like growth factor 1 receptor (Homo sapiens), sequence (P08069 741-1367 limits assumed): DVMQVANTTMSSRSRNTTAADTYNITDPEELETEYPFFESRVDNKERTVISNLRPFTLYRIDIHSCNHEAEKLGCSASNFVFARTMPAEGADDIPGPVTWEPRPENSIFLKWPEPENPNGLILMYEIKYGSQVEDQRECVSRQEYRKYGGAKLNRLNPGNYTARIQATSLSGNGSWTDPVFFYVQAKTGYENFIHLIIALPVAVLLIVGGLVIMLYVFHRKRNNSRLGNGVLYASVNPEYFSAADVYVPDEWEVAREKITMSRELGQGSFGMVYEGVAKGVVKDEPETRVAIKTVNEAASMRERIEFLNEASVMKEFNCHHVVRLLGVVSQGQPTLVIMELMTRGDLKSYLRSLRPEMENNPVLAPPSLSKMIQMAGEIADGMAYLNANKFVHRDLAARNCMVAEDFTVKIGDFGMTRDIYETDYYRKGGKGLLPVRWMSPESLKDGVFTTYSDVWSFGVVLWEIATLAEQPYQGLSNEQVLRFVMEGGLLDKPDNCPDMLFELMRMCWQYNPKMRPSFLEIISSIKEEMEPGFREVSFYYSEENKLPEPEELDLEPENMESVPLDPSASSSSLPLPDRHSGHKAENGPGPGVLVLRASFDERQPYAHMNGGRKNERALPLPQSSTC
Serine/threonine-protein kinase N2 (Homo sapiens), sequence (Q16513 whole entry, looked up): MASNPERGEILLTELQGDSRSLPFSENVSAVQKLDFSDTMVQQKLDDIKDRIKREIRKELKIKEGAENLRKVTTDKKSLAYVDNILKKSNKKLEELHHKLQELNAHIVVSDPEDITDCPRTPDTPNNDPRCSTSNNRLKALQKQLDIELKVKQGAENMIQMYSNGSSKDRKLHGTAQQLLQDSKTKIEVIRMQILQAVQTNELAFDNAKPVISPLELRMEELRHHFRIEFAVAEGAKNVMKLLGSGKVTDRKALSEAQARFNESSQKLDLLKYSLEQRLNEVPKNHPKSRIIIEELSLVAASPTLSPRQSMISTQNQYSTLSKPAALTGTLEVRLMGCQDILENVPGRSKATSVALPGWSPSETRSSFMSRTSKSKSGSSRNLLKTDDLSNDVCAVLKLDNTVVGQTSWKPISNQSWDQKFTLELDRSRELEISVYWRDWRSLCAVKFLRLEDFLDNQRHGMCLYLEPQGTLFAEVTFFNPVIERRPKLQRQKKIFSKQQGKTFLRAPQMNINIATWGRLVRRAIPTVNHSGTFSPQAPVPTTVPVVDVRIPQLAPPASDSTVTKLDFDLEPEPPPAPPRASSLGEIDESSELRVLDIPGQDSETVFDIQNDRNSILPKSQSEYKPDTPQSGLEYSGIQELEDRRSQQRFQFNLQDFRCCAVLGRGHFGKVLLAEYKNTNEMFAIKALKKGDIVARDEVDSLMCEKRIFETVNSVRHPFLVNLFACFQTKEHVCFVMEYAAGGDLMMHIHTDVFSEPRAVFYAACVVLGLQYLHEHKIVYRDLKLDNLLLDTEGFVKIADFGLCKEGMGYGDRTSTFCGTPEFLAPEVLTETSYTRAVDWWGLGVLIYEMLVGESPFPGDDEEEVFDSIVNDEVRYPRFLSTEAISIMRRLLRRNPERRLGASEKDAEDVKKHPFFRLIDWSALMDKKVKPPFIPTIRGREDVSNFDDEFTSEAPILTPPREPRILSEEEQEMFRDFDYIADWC
5'-AMP-activated protein kinase catalytic subunit alpha-1 (Homo sapiens), sequence (Q13131 whole entry, looked up, the tested form may be a part): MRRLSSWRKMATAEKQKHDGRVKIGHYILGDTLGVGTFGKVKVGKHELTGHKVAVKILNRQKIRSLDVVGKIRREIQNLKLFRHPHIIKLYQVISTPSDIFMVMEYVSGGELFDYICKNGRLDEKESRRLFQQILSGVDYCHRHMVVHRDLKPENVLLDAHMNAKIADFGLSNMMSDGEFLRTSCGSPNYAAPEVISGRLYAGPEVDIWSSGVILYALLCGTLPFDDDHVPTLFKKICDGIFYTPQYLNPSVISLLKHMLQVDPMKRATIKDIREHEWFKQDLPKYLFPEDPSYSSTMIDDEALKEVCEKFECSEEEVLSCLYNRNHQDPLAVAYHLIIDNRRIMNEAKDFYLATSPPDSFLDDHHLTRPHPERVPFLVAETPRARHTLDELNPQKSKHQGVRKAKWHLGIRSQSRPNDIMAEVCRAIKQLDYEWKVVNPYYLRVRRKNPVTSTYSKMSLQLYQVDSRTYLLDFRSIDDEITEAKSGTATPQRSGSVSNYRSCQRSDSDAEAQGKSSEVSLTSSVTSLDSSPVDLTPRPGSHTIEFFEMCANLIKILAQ
Calcium/calmodulin-dependent protein kinase kinase 2 (Homo sapiens), sequence (Q96RR4 2-588 limits assumed): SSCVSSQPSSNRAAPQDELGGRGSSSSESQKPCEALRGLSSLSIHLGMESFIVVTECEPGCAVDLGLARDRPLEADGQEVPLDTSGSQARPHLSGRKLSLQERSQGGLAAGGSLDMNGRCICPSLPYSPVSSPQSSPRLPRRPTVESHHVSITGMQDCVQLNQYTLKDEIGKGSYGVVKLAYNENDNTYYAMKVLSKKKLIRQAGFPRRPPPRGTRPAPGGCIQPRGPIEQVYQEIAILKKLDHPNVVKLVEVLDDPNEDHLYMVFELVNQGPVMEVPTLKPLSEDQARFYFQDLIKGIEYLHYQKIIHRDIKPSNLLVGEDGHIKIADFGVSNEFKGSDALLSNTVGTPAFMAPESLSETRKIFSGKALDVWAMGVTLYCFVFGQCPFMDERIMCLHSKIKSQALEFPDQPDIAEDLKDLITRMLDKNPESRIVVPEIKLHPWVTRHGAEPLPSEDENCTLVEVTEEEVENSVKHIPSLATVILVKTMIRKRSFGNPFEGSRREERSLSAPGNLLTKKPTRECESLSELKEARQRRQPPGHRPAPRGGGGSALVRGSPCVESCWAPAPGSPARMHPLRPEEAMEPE
SRSF protein kinase 1 (Homo sapiens), sequence (Q96SB4 whole entry): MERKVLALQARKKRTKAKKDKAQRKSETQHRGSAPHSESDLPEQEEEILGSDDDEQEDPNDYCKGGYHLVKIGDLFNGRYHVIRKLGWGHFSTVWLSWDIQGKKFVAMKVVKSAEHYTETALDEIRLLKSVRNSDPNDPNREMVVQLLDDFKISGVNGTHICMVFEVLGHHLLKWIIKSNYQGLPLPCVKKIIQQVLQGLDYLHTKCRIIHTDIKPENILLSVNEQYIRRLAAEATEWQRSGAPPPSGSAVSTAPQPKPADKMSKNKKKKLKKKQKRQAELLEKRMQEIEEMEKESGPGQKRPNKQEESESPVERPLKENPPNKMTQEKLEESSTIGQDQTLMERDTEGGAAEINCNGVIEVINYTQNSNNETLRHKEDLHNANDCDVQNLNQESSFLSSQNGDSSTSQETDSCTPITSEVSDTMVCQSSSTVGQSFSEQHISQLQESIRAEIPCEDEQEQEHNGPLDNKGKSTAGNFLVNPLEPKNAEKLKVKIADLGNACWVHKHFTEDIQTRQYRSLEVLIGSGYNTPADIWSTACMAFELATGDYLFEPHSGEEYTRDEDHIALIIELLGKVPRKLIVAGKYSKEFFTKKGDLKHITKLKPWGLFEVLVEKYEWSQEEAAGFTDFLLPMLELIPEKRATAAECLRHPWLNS
Aurora kinase B (Homo sapiens), sequence (Q96GD4 whole entry): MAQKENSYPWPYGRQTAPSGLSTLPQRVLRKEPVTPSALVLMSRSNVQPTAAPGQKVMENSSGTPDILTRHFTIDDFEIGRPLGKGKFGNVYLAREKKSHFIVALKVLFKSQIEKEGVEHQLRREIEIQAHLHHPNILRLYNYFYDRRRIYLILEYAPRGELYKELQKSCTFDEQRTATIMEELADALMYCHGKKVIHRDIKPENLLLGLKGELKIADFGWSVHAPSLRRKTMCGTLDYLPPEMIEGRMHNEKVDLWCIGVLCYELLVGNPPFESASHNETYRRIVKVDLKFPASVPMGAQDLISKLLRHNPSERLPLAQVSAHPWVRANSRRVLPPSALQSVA

For `CNS(=O)(=O)c1ccc2c(c1)/C(=C/c1cn(C)c3ccc(OC)cc13)C(=O)N2`, the Activity stood at 88% in [1]; 76% in [2]; 50% in test [3]; 89% in test [4]; 103% in [5]; 60% in test [6]. Further, the Activity in [7] came out at 104%; in test [8], 95%; in [9], 102%; in test [10], 90%; in [11], 94%; in test [12], 105%.

`CN(C)S(=O)(=O)c1ccc2c(c1)/C(=C/c1cn(C)c3ccc(O)cc13)C(=O)N2`: the Activity in test [1] amounted to 87%; in test [2] it was 11%; in test [3], 25%; in test [4] it was 101%; in [5] it was 97%; in test [6], 95%. Besides, the Activity was 101% in test [7]; 98% in test [8]; 97% in test [9]; 91% in [10]; 87% in test [11]; 109% in test [12].

`COc1ccc2[nH]cc(/C=C3\C(=O)Nc4ccc(S(N)(=O)=O)cc43)c2c1`: the Activity in test [1] was found to be 72%; in test [2], 48%; in test [3], 31%; in [4] it was 105%; in test [5], 107%; in test [6] it was 97%. Also, the Activity in [7] was determined as 93%; in test [8], 101%; in test [9], 102%; in test [10] it was 96%; in test [11], 85%; in [12], 114%.

`COc1ccc2c(c1)c(/C=C1\C(=O)Nc3ccc(S(=O)(=O)N(C)C)cc31)cn2C`: the Activity in [1] worked out at 91%; in test [2], 71%; in test [3], 30%; in test [4] it was 98%; in [5], 99%; in test [6], 79%. The Activity in test [7] turned out to be 106%; in test [8] it was 101%; in test [9], 95%; in [10], 108%; in test [11] it was 90%; in test [12], 111%.

`COc1ccc2c(c1)c(/C=C1\C(=O)Nc3ccc(S(N)(=O)=O)cc31)cn2C`: the Activity in test [1] is 89%; in test [2] it was 50%; in [3], 19%; in test [4], 101%; in [5] it was 101%; in test [6], 100%. Further, the Activity in test [7] is 93%; in test [8] it was 86%; in test [9] it was 106%; in [10], 98%; in test [11], 80%; in [12], 106%.

Consider `Cn1cc(/C=C2\C(=O)Nc3ccc(S(N)(=O)=O)cc32)c2ccccc21`, for which the Activity turned out to be 56% in test [1]; 42% in test [2]; 25% in [3]; 122% in test [4]; 99% in test [5]; 107% in [6]. Besides, the Activity came out at 85% in test [7]; 91% in test [8]; 107% in test [9]; 94% in test [10]; 81% in test [11]; 116% in test [12].

Source of the values: ChEMBL document CHEMBL4765228, “Indole-like Trk receptor antagonists” (Eur J Med Chem, 2016).
